Entries after “also recorded” stand apart in the source; their conditions may differ.
Experiments:
[1] = tested on: 21-26 kDa proteins; experiment: Protein isoprenylation inhibition in NIH3T3 cells (SDS-PAGE fluorography); assay type: cell-based, mouse
Experimental: "Isoprenylation" is the addition of a multiple of the 5 carbon isoprene unit to a protein. Our experiments in isoprenylation are reported at Crowell, et al. 1991, J. Biol. Chem. 266:17679-17685. To test whether a specific monoterpene affects isoprenylation of proteins in cells, […] were incubated with a radioactive isoprene precursor and 0-5 mM of the test monoterpene and then subjected to SDS-PAGE. Because they carried a radioactive label, isoprenylated proteins were visualized by fluorography. As a control, cells were incubated without the monoterpene.
Cells were harvested after trypsin treatment, washed twice with phosphate-buffered saline, suspended in electrophoresis sample buffer (Laemmli, U.K., 1970, Nature 227:680-685), and either analyzed immediately or stored at -20° C. Whole cell extracts were analyzed by SDS-PAGE on 16-cm×18-cm×0.75-mm gels by the method of Laemmli (supra). The acrylamide concentrations were 5% for the stacking gel and 12% for the separating gel. Gels were stained with Coomassie Brilliant Blue, equilibrated for 20 min in Amplify (Amersham Corp.) fluorographic reagent, dried under vacuum at 65° C., and exposed to preflashed Kodak X-Omat AR film as described by Laskey and Mills (1975, Eur. J. Biochem, 56:335-341). Some fluorograms were analyzed further by densitometry. Where indicated, gels were sliced, dissolved at 50° C. for 3 hours in 0.5 ml of water+0.5 ml of Solvable (Amersham), and then analyzed by scintillation spectrometry in 10 ml of Atom light (Amersham) mixture. Protein content was measured by the method of Lowry, et al. (1951, J. Biol. Chem. 193:265-275).
FIG. 1 depicts the structures of certain monoterpenes.
The degree of isoprenylation was evaluated by the amount of labeled protein present in the 21-26 kDa range, as evidenced by fluorography.

[2] = tested on: NIH3T3 cells; experiment: NIH3T3 cell growth inhibition (FIG. 3); assay type: cell-based, mouse; details: NIH3T3 (murine) cells
Experimental: NIH3T3 (mouse embryo) cells were obtained from the American Type Culture Collection and were grown in Dulbecco's modified Eagle's medium supplemented with 10% calf serum. M600B immortalized human mammary epithelial cells (Stampfer, M.R., 1985, J. Tissue Culture Methods 9:107-115) were, obtained from Dr. Martha Stampfer and were grown in supplemented HCDB 170 medium (Hammond, et al. (1984) Proc. Natl. Acad. Sci U.S.A. 81:5435-5439), as described previously (Stampfer, et al. (1985) Proc. Natl. Acad. Sci U.S.A. 82:2394-2398; Eldridge, et al. (1989) Cancer Res. 49:4326-4331).
All cells were maintained in 100-mm dishes at 37° C. in a humidified 5% CO2 atmosphere. Viable cells were distinguished from nonviable cells by counting azure II/methylene blue-stained colonies 10 days after the cells were plated at a density of 100 cells per dish. Trypan blue exclusion was measured by incubating cells for 1 min with one drop of trypan blue per 10 ml of cells. Viable (colorless) and nonviable (blue) cells were then counted on a hemocytometer.
We examined the effect of several of the terpenes on certain types of cell growth. […] Additionally, growth of HT29 (human colon adenocarcinoma) cells was inhibited by 80% by 1 mM perillyl alcohol.

[3] = tested on: human cancer cell lines; experiment: Growth of human cancer cell lines (NCI Developmental Therapeutics Program, FIG. 5); assay type: cell-based; details: various concentrations
Experimental: Various concentrations of perillyl alcohol caused the regression of a number of human cancer cell lines. FIG. 5 is a set of diagrams showing the effects of perillyl alcohol on different cancer cell lines. These experiments were conducted by the National Cancer Institute Developmental Therapeutics Program.

[4] = Plasma metabolite identification and quantitation in rats; assay type: in vivo, Wistar-Furth rat; details: for DHPA (% total) / DHPAME (% total) / LIM/POH (% total) / PA (% total) / PAME (% total) / mM LIM/POH: plasma
Experimental: Control animals received oil alone. At the chosen time points, rats were anesthetized with ether and blood was collected into heparinized tubes (Heparin (Sigma, Grade II), at 20 mg/ml in 0.9% saline). Plasma was removed following centrifugation and stored at -20° C.
For quantitation of chronic plasma metabolite levels of perillyl alcohol, female WF rats were housed individually and fed fresh diet daily. The afternoon before blood collection, all rats were given approximately 20 grams of the appropriate diet and allowed to eat ad. libitum for 18 hours. Food consumption data was determined the next morning and the rats were bled within 2 hours following food removal.
Briefly, 5 μl of a 10 mM solution of perillaldehyde was added to 50 μl plasma as an internal standard for quantitation. The plasma was mixed with an equal volume of n-butanol:acetonitrile (1:1, v/v), after which another volume of saturated potassium phosphate was added. After vortexing, the samples were centrifuged and the organic layer removed from the top.
Plasma extracts were analyzed using a Hewlett-Packard 5891 gas chromatograph equipped with a flame-ionization detector or a Hewlett-Packard 5890 chromatograph equipped with a 5971A mass-selective detector, both with 30 m Supelco SPB-5 columns. The temperature program was 90° C. for 4 minutes, increasing by 10° C./minute, followed by 15 minutes at 275° C. The split ratio was 1:10 and the linear velocity was 1.1 ml/minute. Standard curves were generated by adding 5 μl rat plasma. Standards were then extracted and analyzed by capillary gas chromatography. The ratio of the terpene peak area/perillaldehyde peak area versus the concentration of terpene in the sample was plotted.

[5] = tested on: HT29 cells; experiment: Protein isoprenylation in HT29 cells; assay type: cell-based, human
[6] = chronic week 3, 10% LIM or 2% POH diet
[7] = chronic week 5, 10% LIM or 2% POH diet
[8] = chronic week 10, 10% LIM or 2% POH diet

C=C(C)[C@@H]1CC=C(CO)CC1 [perillyl alcohol]
ability to inhibit isoprenylation within test panel ([1]; 1 mM, 21-26 kDa range): greatest ability to inhibit isoprenylation
inhibition of isoprenylation in all cases examined ([1]; all cell types examined): inhibition of isoprenylation
inhibition of cell growth [2]: significantly inhibited cell growth in a dose-dependent manner
effect on human cancer cell growth [3]: inhibited cancer cell growth
parent detection in plasma ([4]; acute gavage, any time point including 30 minutes): not detected at any time point including 30 minutes post-gavage
major metabolite detected ([4]; acute gavage, rat): perillic acid
perillic and dihydroperillic acids in plasma ([4]; acutely administered, rat): detectable at 24 hours post-administration
parent compound in plasma ([4]; chronically fed rats): Neither limonene nor perillyl alcohol was detected
DHPA (% total) ([4]; acute 1 g/kg, 4 hour): 5 % total
DHPAME (% total) ([4]; acute 1 g/kg, 4 hour): < 1 % total
LIM/POH (% total) ([4]; acute 1 g/kg, 4 hour): 0 % total
PA (% total) ([4]; acute 1 g/kg, 4 hour): 71 % total
PAME (% total) ([4]; acute 1 g/kg, 4 hour): 24 % total
mM LIM/POH ([4]; acute 1 g/kg, 4 hour, mean ± SEM): 0.00 ± 0.00 mM
DHPA (% total) [4, 6]: 19 % total
DHPAME (% total) [4, 6]: 2 % total
LIM/POH (% total) [4, 6]: 0 % total
PA (% total) [4, 6]: 69 % total
PAME (% total) [4, 6]: 10 % total
mM LIM/POH [4, 6]: 0 mM
DHPA (% total) [4, 7]: 25 % total
DHPAME (% total) [4, 7]: 3 % total
LIM/POH (% total) [4, 7]: 0 % total
PA (% total) [4, 7]: 62 % total
PAME (% total) [4, 7]: 10 % total
mM LIM/POH [4, 7]: 0 mM
DHPA (% total) [4, 8]: 28 % total
DHPAME (% total) [4, 8]: 4 % total
LIM/POH (% total) [4, 8]: 0 % total
PA (% total) [4, 8]: 59 % total
PAME (% total) [4, 8]: 10 % total
mM LIM/POH [4, 8]: 0 mM
rate of conversion to metabolites ([4]; rat): rapidly metabolized to the same metabolites as limonene; also recorded: more rapidly converted to metabolites than limonene
major plasma metabolites ([4]; rat, 1 g/kg gavage, 4 hours): perillic acid and dihydroperillic acid
minor plasma metabolites ([4]; rat, 1 g/kg gavage, 4 hours): minor levels of these acids' methyl esters
differential isoprenylation in HT29 [5]: differential isoprenylation

From patent US5470877A, “Uses of perillic acid methyl ester” (Wisconsin Alumni Research Foundation, priority 1994, dated 1995)
